Results as given in PMC4949556, “Subtle Structural Differences Trigger Inhibitory Activity of Propafenone Analogues at the Two Polyspecific ABC Transporters: P‐Glycoprotein (P‐gp) and Breast Cancer Resistance Protein (BCRP)” (Chemmedchem, 2016).
Entries after “also recorded” stand apart in the source; their conditions may differ.

Experiments:
Type in all cases: cell-based
[1] = target: T1, P-gp (Homo sapiens, UniProt P08183); test: P-gp inhibition: steady-state daunorubicin accumulation in P-gp-overexpressing CCRF VCR1000 cells (flow cytometry); details: for Hill coefficient P-gp: Hill coefficient of IC50 measurement, mean ± SD of n experiments; for in vitro classification as P-gp inhibitor: IC50 below 10 μM considered active; for IC50: daunorubicin 3 μM, CCRF VCR1000 cells, mean±SD, at least n=3; for fold higher IC50 value for BCRP than for P-gp: ratio IC50 BCRP / IC50 P-gp; for inhibition at 30 min, 100 µM: human, CCRF VCR1000 cells overexpressing P-gp, pH 7.4, probe daunorubicin (3 µM), 100µM compound, compared to positive control verapamil (100µM) set as 100%, mean of 3 independent experiments, read-out: In vitro activity (% inhibition), P-gp, Table S2
T1 construct: was obtained by stepwise selection of CCRF‐CEM in vincristine‐containing medium; endogenous in cells; host or cells: CCRF VCR1000 (vincristine-selected subline of CCRF-CEM human T-lymphoblasts; gift of V. Gekeler)
Experimental: (§1) P‐gp and BCRP inhibitory activity was assessed by implementing an intracellular accumulation assay of daunorubicin or mitoxantrone in cells overexpressing P‐gp or BCRP, respectively. In a first run, the effect of compounds 5, 6, 10, 11, and 16 (Figure 2) at 100 μM final concentration was tested (Figure 3). All compounds showing an inhibitory effect of more than 50 % compared with full inhibition by the known inhibitors of P‐gp (verapamil) and BCRP (Ko143) were further processed, and IC50 values were determined (IC50 curves and Hill coefficients are available in Figure S1 and Table S3 in the Supporting Information). […] For P‐gp, nine compounds were classified as inhibitors (5 a, 5 b, 6 a, 10 a, 10 b, 11 b, 16 a, 16 b, 16 c).
(§2) Cell culture: The human myeloid leukemia PLB985 parental and stably expressing BCRP cell lines31 were kindly provided by B. Sarkadi (Institute of Enzymology, Research Centre for Natural Sciences, Budapest, Hungary) and K. Nemet (Creative Cell Ltd., Budapest, Hungary). Both cell lines were cultured in RPMI 1640 supplemented with 10 % FBS and 100 IU mL^−1 of penicillin and streptomycin. The human T‐lymphoblast cell line CCRF VCR1000, overexpressing P‐gp, was obtained by stepwise selection of CCRF‐CEM in vincristine‐containing medium32 and was kindly provided by V. Gekeler (Altana‐Pharma formerly Byk‐Gulden, Konstanz, Germany). CCRF VCR1000 cells were cultured in RPMI 1640 medium containing 20 % FBS and were treated regularly with vincristine (1 μg mL^−1) for about 72 h, followed by centrifugation (300 g, 5 min, RT) and resuspension in normal culture medium. All cell lines were maintained at 37 °C in an atmosphere containing 5 % CO2 with 95 % relative humidity.
(§3) Steady‐state accumulation experiments: For BCRP and P‐gp inhibition studies, the steady‐state accumulation of mitoxantrone (7 μM) and daunorubicin (3 μM), respectively, was performed as previously described.33 Briefly, cells were harvested, pelleted (300 g, 5 min, 4 °C), diluted to a concentration of 12×10^6 cells mL^−1 in HPMI (10 mM Hepes, 120 mM NaCl, 5 mM KCl, 0.4 mM MgCl2, 0.04 mM CaCl2, 10 mM glucose, 10 mM NaHCO3, 5 mM Na2HPO4, pH 7.4 with NaOH) and kept on ice for further processing. For each data point, the cell suspension (25 μL) was preincubated for 5 min at 37 °C with 2 % DMSO (25 μL) in HPMI alone (DMSO control) or containing different concentrations of test compound solutions. Thereafter, cells were preloaded with daunorubicin (50 μL) or mitoxantrone (50 μL) for 30 or 20 min at 37 °C, respectively, to reach a final concentration of 3 or 7 μM, respectively. […] Preloading was stopped by chilling cells on ice for 5 min followed by the addition of 400 μL ice‐cold PBS. Cells were pelleted (300 g, 5 min, 4 °C), the supernatant was discarded, and the cell pellet was resuspended in ice‐cold PBS (150 μL). Until measurement, cells were kept on ice and in the dark. Immediately before cell fluorescence measurement by flow cytometry (BD Accuri C6 and BD FACSCalibur, Becton Dickinson, San Jose, CA, USA; MACSQuant, MiltenyiBiotec GmbH, BergischGladbach, Germany), 50 μL of 4′,6‐diamidin‐2‐phenylindole solution (DAPI, 4 μg mL^−1 in PBS) was added to gate out dead cells. 100 μM verapamil and 1 μM Ko143 were used as positive controls for P‐gp and BCRP inhibition, respectively. […]

[2] = target: T2, BCRP (Homo sapiens, UniProt Q9UNQ0); test: BCRP inhibition: steady-state mitoxantrone accumulation in BCRP-expressing PLB985 cells (flow cytometry); details: for IC50: BCRP IC50, mitoxantrone 7 μM, PLB985 BCRP cells, mean±SD, at least n=3 (11 a n=2); for Hill coefficient BCRP: Hill coefficient of IC50 measurement, mean ± SD of n experiments; for in vitro classification as BCRP inhibitor: IC50 below 10 μM considered active; for inhibition at 20 min, 100 µM: human, PLB985 cells stably expressing BCRP, pH 7.4, probe mitoxantrone (7 µM), 100µM compound, compared to positive control Ko143 (1µM) set as 100%, mean of 3 independent experiments, read-out: In vitro activity (% inhibition), BCRP, Table S1
T2 construct: expressed in transfected cells; host or cells: PLB985 human myeloid leukemia cells stably expressing BCRP (gift of B. Sarkadi and K. Nemet, Budapest)
Experimental: as §1, §2, §3

[3] = target: T3, P-gp / BCRP (Homo sapiens, UniProt Q9UNQ0); test: as above; details: human, pH 7.4, probe daunorubicin (3 µM) for P-gp; mitoxantrone (7 µM) for BCRP; IC50 P-gp / IC50 BCRP; read-out: selectivity index (SI) P-gp/BCRP
T3 construct: expressed in transfected cells; host or cells: PLB985 human myeloid leukemia cells stably expressing BCRP (gift of B. Sarkadi and K. Nemet, Budapest)
Experimental: as §1, §2, §3

T3 sequence (Q9UNQ0 whole entry): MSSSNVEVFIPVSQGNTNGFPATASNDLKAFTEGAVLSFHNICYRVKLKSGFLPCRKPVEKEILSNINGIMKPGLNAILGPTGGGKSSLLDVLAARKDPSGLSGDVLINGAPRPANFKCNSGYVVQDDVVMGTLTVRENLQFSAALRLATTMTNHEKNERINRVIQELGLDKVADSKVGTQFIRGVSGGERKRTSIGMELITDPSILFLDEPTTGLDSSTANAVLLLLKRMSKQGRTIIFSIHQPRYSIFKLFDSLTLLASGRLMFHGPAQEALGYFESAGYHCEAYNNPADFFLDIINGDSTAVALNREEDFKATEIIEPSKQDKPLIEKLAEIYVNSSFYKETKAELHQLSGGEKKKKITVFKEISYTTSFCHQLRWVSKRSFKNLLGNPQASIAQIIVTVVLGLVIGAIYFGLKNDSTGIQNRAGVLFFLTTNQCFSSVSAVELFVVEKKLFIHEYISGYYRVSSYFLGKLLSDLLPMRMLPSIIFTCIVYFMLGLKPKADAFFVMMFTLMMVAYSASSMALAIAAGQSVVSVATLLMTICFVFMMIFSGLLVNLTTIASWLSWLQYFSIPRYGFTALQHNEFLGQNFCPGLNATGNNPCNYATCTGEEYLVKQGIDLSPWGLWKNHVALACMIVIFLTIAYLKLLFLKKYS
T2 sequence (Q9UNQ0 whole entry): as above
T1 sequence (P08183 whole entry): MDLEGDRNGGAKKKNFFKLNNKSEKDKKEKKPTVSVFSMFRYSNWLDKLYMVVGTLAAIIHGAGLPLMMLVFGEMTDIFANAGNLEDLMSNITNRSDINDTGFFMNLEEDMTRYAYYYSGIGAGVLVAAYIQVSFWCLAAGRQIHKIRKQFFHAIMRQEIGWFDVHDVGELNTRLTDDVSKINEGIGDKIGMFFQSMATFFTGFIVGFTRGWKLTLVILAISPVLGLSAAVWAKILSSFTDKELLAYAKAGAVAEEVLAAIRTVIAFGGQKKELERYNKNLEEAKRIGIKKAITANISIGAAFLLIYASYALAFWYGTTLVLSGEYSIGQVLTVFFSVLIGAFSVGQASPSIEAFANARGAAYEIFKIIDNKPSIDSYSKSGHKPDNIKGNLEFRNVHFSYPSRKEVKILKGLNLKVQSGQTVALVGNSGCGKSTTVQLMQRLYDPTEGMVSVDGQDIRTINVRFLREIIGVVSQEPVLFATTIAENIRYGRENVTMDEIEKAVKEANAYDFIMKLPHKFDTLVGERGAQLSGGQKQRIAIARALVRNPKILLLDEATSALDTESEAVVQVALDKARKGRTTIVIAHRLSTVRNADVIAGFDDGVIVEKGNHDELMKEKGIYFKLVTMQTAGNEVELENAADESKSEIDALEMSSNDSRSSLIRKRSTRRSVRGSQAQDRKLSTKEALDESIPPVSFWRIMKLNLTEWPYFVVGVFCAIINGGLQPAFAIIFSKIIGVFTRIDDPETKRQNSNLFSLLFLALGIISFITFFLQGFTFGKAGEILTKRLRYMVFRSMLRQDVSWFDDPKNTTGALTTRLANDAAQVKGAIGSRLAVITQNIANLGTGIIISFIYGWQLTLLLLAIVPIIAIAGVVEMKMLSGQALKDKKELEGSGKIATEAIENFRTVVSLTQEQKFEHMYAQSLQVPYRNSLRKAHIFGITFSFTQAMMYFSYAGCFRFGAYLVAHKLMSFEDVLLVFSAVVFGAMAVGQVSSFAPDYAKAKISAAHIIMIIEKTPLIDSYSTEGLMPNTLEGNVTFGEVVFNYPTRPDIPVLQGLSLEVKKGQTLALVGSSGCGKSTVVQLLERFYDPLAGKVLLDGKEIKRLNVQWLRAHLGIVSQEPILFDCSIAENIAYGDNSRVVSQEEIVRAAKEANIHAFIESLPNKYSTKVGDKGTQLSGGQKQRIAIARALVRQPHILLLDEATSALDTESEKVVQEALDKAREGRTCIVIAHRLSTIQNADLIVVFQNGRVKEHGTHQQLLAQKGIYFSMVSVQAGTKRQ

Structure (SMILES)	Hill coefficient P-gp [1]	in vitro classification as P-gp inhibitor [1]	IC50 [1] [µM]	fold higher IC50 value for BCRP than for P-gp [1]	IC50 [2] [µM]	Hill coefficient BCRP [2]	in vitro classification as BCRP inhibitor [2]	selectivity ratio [3]	inhibition at 20 min, 100 µM [2] [%]	factor more active at P-gp than methoxy analogue 6 b ([1]; P-gp, compared with 6 b)	fold more active at P-gp than analogue 11 a ([1]; P-gp, compared with 11 a)	fold lower IC50 value for BCRP than for P-gp ([2]; ratio IC50 P-gp / IC50 BCRP) [fold]	inhibition at 30 min, 100 µM [1] [%]
O=C(CCc1ccccc1)c1ccccc1OCC(O)CNC(=O)C1CCCN1 (stereo not shown) [Compound 5 a, N ‐(2‐hydroxy‐3‐(2‐(3‐phenylpropanoyl)phenoxy)propyl)pyrrolidine‐2‐carboxamide]	1.3±0.2	inhibitors	2.1 ± 0.4	more than fivefold	16.1	1.4±0.3	borderline activity	0.13					
COc1ccc(C(=O)CCc2ccccc2)c(OCC(O)CNC(=O)C2CCCN2)c1 (stereo not shown) [Compound 5 b, N‐(2‐hydroxy‐3‐(5‐methoxy‐2‐(3‐phenylpropanoyl)phenoxy)propyl)‐pyrrolidine‐2‐carboxamide]	1.3±0.2	inhibitors	2.2 ± 0.6	1.4 fold	3.1 ± 0.5	1.4±0.1	inhibitors						
CC(=O)c1ccccc1OCC(O)CNC(=O)C1CCCN1 (stereo not shown) [Compound 5 c, N ‐(3‐(2‐acetylphenoxy)‐2‐hydroxypropyl)pyrrolidine‐2‐carboxamide]	1.9±0.2	noninhibitors	58.7 ± 9.2				noninhibitors		20				
O=C(CCc1ccccc1)c1ccccc1OCC(O)CN1CC(=O)N2CCCC2C1=O (stereo not shown) [Compound 6 a, 2‐(2‐Hydroxy‐3‐(2‐(3‐phenylpropanoyl)phenoxy)propyl)‐hexahydropyrrolo[1,2‐a]pyrazine‐1,4‐dione]	2.6±0.4	inhibitors	1.6 ± 0.6	more than 2.6 fold	5.8 ± 1	0.9±0.1	inhibitors	0.27		7	tenfold		
COc1ccc(C(=O)CCc2ccccc2)c(OCC(O)CN2CC(=O)N3CCCC3C2=O)c1 (stereo not shown) [Compound 6 b, 2‐(2‐Hydroxy‐3‐(5‐methoxy‐2‐(3‐phenylpropanoyl)phenoxy)propyl)‐hexahydropyrrolo[1,2‐a]pyrazine‐1,4‐dione]	1.5±0.2	borderline inhibitory activity	11 ± 1		3.8 ± 0.6	1.1±0.2	inhibitors	2.82				2.9	
CC(=O)c1ccccc1OCC(O)CN1CC(=O)N2CCCC2C1=O (stereo not shown) [Compound 6 c, 2‐(3‐(2‐Acetylphenoxy)‐2‐hydroxypropyl)hexahydropyrrolo[1,2‐a]‐pyrazine‐1,4‐dione]		noninhibitors					noninhibitors		33				4
O=C(CCc1ccccc1)c1ccccc1OCCNC(=O)C1CCCN1 (stereo not shown) [Compound 10 a, N ‐(2‐(2‐(3‐phenylpropanoyl)phenoxy)ethyl)pyrrolidine‐2‐carboxamide]	1.6±0.2	inhibitors	1.3 ± 0.1	more than 2.6 fold	3.3 ± 0.6	1.3±0.2	inhibitors						
COc1ccc(C(=O)CCc2ccccc2)c(OCCNC(=O)C2CCCN2)c1 (stereo not shown) [Compound 10 b]	1.1±0.1	inhibitors	1 ± 0.2	more than 2.6 fold	2.9 ± 0.5	1.0±0.1	inhibitors						
CC(=O)c1ccccc1OCCNC(=O)C1CCCN1 (stereo not shown) [Compound 10 c, N ‐(2‐(2‐acetylphenoxy)ethyl)pyrrolidine‐2‐carboxamide]	2.2±0.4	noninhibitors	34.8 ± 1.8				noninhibitors		24				
O=C(CCc1ccccc1)c1ccccc1OCCN1CC(=O)N2CCCC2C1=O (stereo not shown) [Compound 11 a, 2‐(2‐(2‐(3‐Phenylpropanoyl)phenoxy)ethyl)hexahydropyrrolo[1,2‐a]‐pyrazine‐1,4‐dione]	1.8±0.4	borderline inhibitory activity; also recorded: borderline inhibitor	13.9 ± 1.5	1.5 fold	21.5 ± 2.9	1.0±0.0	weak inhibitor						
CC(=O)c1ccccc1OCCN1CC(=O)N2CCCC2C1=O (stereo not shown) [Compound 11 c, 2‐(2‐(2‐Acetylphenoxy)ethyl)hexahydropyrrolo[1,2‐a]pyrazine‐1,4‐dione]		noninhibitors					noninhibitors		37				8
CC(C)NCC(O)COc1ccccc1C(=O)CCc1ccccc1 (stereo not shown) [Compound 16 a, 1‐(2‐(2‐Hydroxy‐3‐(isopropylamino)propoxy)phenyl)‐3‐phenyl‐propan‐1‐one]	0.9±0.1	inhibitors	0.3	more than fivefold					53				
CC(CF)NCC(O)COc1ccccc1C(=O)CCc1ccccc1 (stereo not shown) [Compound 16 b, 1‐(2‐(3‐((1‐Fluoropropan‐2‐yl)amino)‐2‐hydroxypropoxy)phenyl)‐3‐phenylpropan‐1‐one]	1.3±0.2	inhibitors	0.5 ± 0.1	more than fivefold	5.5 ± 0.9	1.6±0.2	inhibitors						
CC(NCC(O)COc1ccccc1C(=O)CCc1ccccc1)C(F)F (stereo not shown) [Compound 16 c, 1‐(2‐(3‐((1,1‐Difluoropropan‐2‐yl)amino)‐2‐hydroxypropoxy)phenyl)‐3‐phenylpropan‐1‐one]	1.5±0.1	inhibitors	0.9 ± 0.2	more than fivefold	4.9 ± 1.1	1.0±0.2	inhibitors						
